Results reported in PMC7118210 (Frontiers in Pharmacology, 2020).
Where two headings read alike, the source gives them in different places.

Tests used:
[1] = design: method as in Liu M. et al., 2012; conditions: dogs, ref Liu M. et al., 2012, cited from earlier work
[2] = Single-dose pharmacokinetics in rats (plasma, UHPLC/MS/MS); assay type: in vivo, Sprague Dawley rats; conditions: rat; for MRT last: read-out: MRT0-t; for MRT inf: read-out: MRT0-∞
Description: Sixty healthy adult Sprague Dawley rats (180-220 g, half male and female) were purchased from the Guangdong Medical Laboratory Animal Center (Guangzhou, Guangdong, China). Thirty Beagle dogs (10-14 kg, half male and female) were purchased from the […] Laboratory Animal Science & Technology Co., Ltd. (Gaoyao, Guangdong, China). All animals were housed under humanized conditions with free access to food and water, and acclimated to the living conditions for at least one week prior to experimentation at the Laboratory Animal Center of the School of Life Sciences, Sun Yat-sen University. Environmental conditions were maintained at 20°C-25°C, 55% ± 15% relative humidity, 12-h light/dark cycles, and 12 air changes per hour. Prior to experimentation, the animals were fasted overnight with water available ad libitum. All animals were healthy based on physical examination and laboratory analyses performed before and after the experiments. At the end of the experiments, the dogs were returned to the Laboratory Animal Center of School of Life Sciences, Sun Yat-sen University. […] All blood samples were transferred into heparin-treated centrifuge tubes and centrifuged for 10 min at 4,000 rpm and 4°C. All human urine samples were mixed and transferred (4 ml) into storage tubes. All biological samples were stored at -80°C. […] The optimal volume and activity in unit volume of enzyme solution [0.2 M acetic acid/water solution: 0.2 M ammonium acetate/water solution, 15:35 (v/v)] were determined through a pretest of the enzyme (rat plasma, 10 μl, 10 U μl^-1; dog plasma, 10 μl, 10 U μl^-1; human plasma, 20 μl, 20 U μl^-1; human urine, 10 μl, 10 U μl^-1). After enzyme incubation, 10 μl of IS solution was added to the plasma and urine samples (2 μg ml^-1 quercetin 3-β-D-glucoside for rat and dog plasma; 583 ng ml^-1 naringin-D4 and 160 ng ml^-1 naringenin-D4 for human plasma; and 9,710 ng ml^-1 naringin-D4 and 6,000 ng ml^-1 naringenin-D4 for human urine). To each fecal sample, 9-fold methanol-normal saline (2:1, v/v) was added, mixed (18,000 rpm, 15 min) by vortexing and centrifuged (10 min, 9,000 rpm, 4°C). Next, 10 μl IS solution (971 ng ml^-1 naringin-D4 and 600 ng ml^-1 naringenin-D4) was added to the supernatants of feces (200 μl) without enzyme incubation. […] The solid material was dissolved with acetonitrile-water (1:1, v/v) and injected into the ultra high-performance liquid chromatography coupled with triple quadrupole mass spectrometry (UHPLC/MS/MS) system as described below. The analysis of nonclinical and clinical samples was performed with a UHPLC/MS/MS system that consisted of a Shimadzu Nexera X2 ultra high-performance liquid chromatography (UHPLC) (Shimadzu Corp., Kyoto, Japan) coupled with an AB Sciex API4000 triple-quadrupole mass spectrometry (MS/MS) system (AB Sciex, Foster City, CA, USA) equipped with an electrospray ionization source and controlled by Analyst (v. 1.6.2) software. […] The injection volume was 10 μl with the flow rate of 0.3 ml min^-1 for plasma, and 0.4 ml min^-1 for urine and feces. The compounds were detected by multiple reaction monitoring in the negative ion electrospray mode. The electrospray source conditions were as follows: ion source gas1 30 psi, ion source gas2 60 psi, curtain gas 20 psi, collisionally activated dissociation (CAD) gas 8 psi, temperature 500°C, and ion spray voltage -4,500 V. Zero air was used for ion source gas1 and ion source gas2 and nitrogen for curtain gas and CAD gas. […] All pharmacokinetic and excretion parameters were expressed as mean ± standard deviation (SD). All mean and SD values were reported to three significant figures. The pharmacokinetic parameters were calculated using the Phoenix WinNonlin software (Version 6.4, Pharsight Corp., Cary, NC, USA) and compared using the Student's t-test (p < 0.05) in SPSS 18.0 (SPSS Inc., Chicago, IL, USA). […]

[3] = both sexes, Sprague Dawley, plasma, iv, 42 mg/kg
[4] = both sexes, Sprague Dawley, plasma, po, 10.5 mg/kg
[5] = both sexes, Sprague Dawley, plasma, po, 21 mg/kg
[6] = both sexes, Sprague Dawley, plasma, po, 42 mg/kg
[7] = both sexes, Sprague Dawley, plasma, po, 168 mg/kg
[8] = female, Sprague Dawley, plasma, iv, 42 mg/kg
[9] = female, Sprague Dawley, plasma, po, 10.5 mg/kg
[10] = female, Sprague Dawley, plasma, po, 21 mg/kg
[11] = female, Sprague Dawley, plasma, po, 42 mg/kg
[12] = female, Sprague Dawley, plasma, po, 168 mg/kg
[13] = male, Sprague Dawley, plasma, iv, 42 mg/kg
[14] = male, Sprague Dawley, plasma, po, 10.5 mg/kg
[15] = male, Sprague Dawley, plasma, po, 21 mg/kg
[16] = male, Sprague Dawley, plasma, po, 42 mg/kg
[17] = male, Sprague Dawley, plasma, po, 168 mg/kg
[18] = naringin 168 mg kg^-1 p.o. single dose

For `C[C@@H]1O[C@@H](O[C@H]2[C@H](Oc3cc(O)c4c(c3)O[C@H](c3ccc(O)cc3)CC4=O)O[C@H](CO)[C@@H](O)[C@@H]2O)[C@H](O)[C@H](O)[C@H]1O` [naringin, Naringin], the cumulative excretion percentage ([1]; in the forms of naringin, naringenin, and 4-hydroxyphenylpropionic acid) is listed as 60%, the “time within which excreted” value [1] is listed as no more than 24 h and the AUC(0-inf) [2, 3] is listed as 18100 ± 7550 ng·h/mL. The AUC(0-t) [2, 3] was 18100 ± 7580 ng·h/mL, the Tmax [2, 3] was 0.03 h and the clearance [2, 3] was 48.3 mL/min/kg. For the same molecule, the half-life [2, 3] was 97.2 ± 70.8 min, the Cmax ([2]; both sexes, Sprague Dawley, plasma, iv, 42 mg/kg, read-out: Cmax) was 88500 ± 51000 ng/mL and the MRT last [2, 3] was 0.496 ± 0.382 h. For the same molecule, the MRT inf [2, 3] was 0.57 ± 0.476 h, the Vd ([2]; both sexes, Sprague Dawley, plasma, iv, 42 mg/kg, read-out: Vd) was 8.29 ± 10 L/kg and the half-life ([2]; both sexes, Sprague Dawley, plasma, po) was less than 60 min. For the same molecule, the AUC(0-inf) [2, 4] was 35.7 ± 29.3 ng·h/mL, the AUC(0-t) [2, 4] was 32.7 ± 27.7 ng·h/mL and the Tmax [2, 4] was 1.5 ± 2.35 h. The half-life [2, 4] was 19.7 ± 16.5 min, the Cmax ([2]; both sexes, Sprague Dawley, plasma, po, 10.5 mg/kg, read-out: Cmax) was 31.7 ± 13.2 ng/mL and the MRT last [2, 4] was 0.741 ± 0.423 h. For the same molecule, the MRT inf [2, 4] was 1.22 ± 0.297 h, the AUC(0-inf) [2, 5] was 38.4 ± 21.4 ng·h/mL and the AUC(0-t) [2, 5] was 34.2 ± 20.3 ng·h/mL. It also gave a Tmax [2, 5] of 1.53 ± 2.36 h, a half-life [2, 5] of 30 ± 29.6 min and a Cmax ([2]; both sexes, Sprague Dawley, plasma, po, 21 mg/kg, read-out: Cmax) of 30.5 ± 16.3 ng/mL. For the same molecule, the MRT last [2, 5] was 1.18 ± 0.399 h, the MRT inf [2, 5] was 1.42 ± 0.621 h and the AUC(0-inf) [2, 6] was 45.1 ± 55.4 ng·h/mL. For the same molecule, the AUC(0-t) [2, 6] was 40.7 ± 51.3 ng·h/mL, the Tmax [2, 6] was 1.18 ± 1.78 h and the half-life [2, 6] was 27.8 ± 35.9 min. The Cmax ([2]; both sexes, Sprague Dawley, plasma, po, 42 mg/kg, read-out: Cmax) was 52.6 ± 78.8 ng/mL, the MRT last [2, 6] was 1.1 ± 0.381 h and the MRT inf [2, 6] was 1.24 ± 0.292 h. It also gave an AUC(0-inf) [2, 7] of 145 ± 66.4 ng·h/mL, an AUC(0-t) [2, 7] of 140 ± 66.3 ng·h/mL and a Tmax [2, 7] of 2.85 ± 4.06 h. For the same molecule, the half-life [2, 7] was 44.3 ± 46.9 min, the MRT last [2, 7] was 2.01 ± 0.451 h and the MRT inf [2, 7] was 1.96 ± 1.08 h. The Tmax ([2]; both sexes, Sprague Dawley, plasma, po, rats, nonclinical p.o. administration studies overall) was 1.77 ± 2.64 h, the AUC(0-inf) [2, 8] was 14800 ± 7280 ng·h/mL and the AUC(0-t) [2, 8] was 14800 ± 7290 ng·h/mL. For the same molecule, the Tmax [2, 8] was 0.03 h, the half-life [2, 8] was 96 ± 58.3 min and the Cmax ([2]; female, Sprague Dawley, plasma, iv, 42 mg/kg, read-out: Cmax) was 70200 ± 60000 ng/mL. The AUC(0-inf) [2, 9] was 34.6 ± 31.9 ng·h/mL, the AUC(0-t) [2, 9] was 31.9 ± 29.9 ng·h/mL and the Tmax [2, 9] was 1.05 ± 0.622 h. It also gave a half-life [2, 9] of 27.9 ± 20.6 min, a Cmax ([2]; female, Sprague Dawley, plasma, po, 10.5 mg/kg, read-out: Cmax) of 27.2 ± 11.2 ng/mL and an AUC(0-inf) [2, 10] of 51.9 ± 15.7 ng·h/mL. It also gave an AUC(0-t) [2, 10] of 47 ± 15.6 ng·h/mL, a Tmax [2, 10] of 1.55 ± 2.49 h and a half-life [2, 10] of 40.5 ± 34.2 min. For the same molecule, the Cmax ([2]; female, Sprague Dawley, plasma, po, 21 mg/kg, read-out: Cmax) was 31.1 ± 16 ng/mL, the AUC(0-inf) [2, 11] was 15.3 ± 11.6 ng·h/mL and the AUC(0-t) [2, 11] was 13.3 ± 10.3 ng·h/mL. The Tmax [2, 11] was 1.7 ± 2.42 h, the half-life [2, 11] was 33 ± 48.8 min and the Cmax ([2]; female, Sprague Dawley, plasma, po, 42 mg/kg, read-out: Cmax) was 12.6 ± 9.42 ng/mL. For the same molecule, the AUC(0-inf) [2, 12] was 142 ± 52.4 ng·h/mL, the AUC(0-t) [2, 12] was 137 ± 50.7 ng·h/mL and the Tmax [2, 12] was 1.95 ± 3.39 h. For the same molecule, the half-life [2, 12] was 51 ± 51.2 min, the Cmax ([2]; female, Sprague Dawley, plasma, po, 168 mg/kg, read-out: Cmax) was 95.8 ± 54.4 ng/mL and the AUC(0-inf) [2, 13] was 21400 ± 6930 ng·h/mL. It also gave an AUC(0-t) [2, 13] of 21300 ± 7030 ng·h/mL, a Tmax [2, 13] of 0.03 h and a half-life [2, 13] of 99 ± 88.8 min. It also gave a Cmax ([2]; male, Sprague Dawley, plasma, iv, 42 mg/kg, read-out: Cmax) of 106000 ± 37600 ng/mL, an AUC(0-inf) [2, 14] of 36.9 ± 30.2 ng·h/mL and an AUC(0-t) [2, 14] of 33.5 ± 28.8 ng·h/mL. For the same molecule, the Tmax [2, 14] was 1.95 ± 3.4 h, the half-life [2, 14] was 11.4 ± 3.78 min and the Cmax ([2]; male, Sprague Dawley, plasma, po, 10.5 mg/kg, read-out: Cmax) was 36.1 ± 14.9 ng/mL. It also gave an AUC(0-inf) [2, 15] of 24.8 ± 18 ng·h/mL, an AUC(0-t) [2, 15] of 21.4 ± 16.5 ng·h/mL and a Tmax [2, 15] of 1.5 ± 2.52 h. For the same molecule, the half-life [2, 15] was 19.5 ± 22.9 min, the Cmax ([2]; male, Sprague Dawley, plasma, po, 21 mg/kg, read-out: Cmax) was 29.9 ± 18.5 ng/mL and the AUC(0-inf) [2, 16] was 74.9 ± 67.6 ng·h/mL. For the same molecule, the AUC(0-t) [2, 16] was 68.1 ± 62.7 ng·h/mL, the Tmax [2, 16] was 0.65 ± 0.762 h and the half-life [2, 16] was 22.5 ± 21.2 min. For the same molecule, the Cmax ([2]; male, Sprague Dawley, plasma, po, 42 mg/kg, read-out: Cmax) was 92.7 ± 99.4 ng/mL, the AUC(0-inf) [2, 17] was 149 ± 84.3 ng·h/mL and the AUC(0-t) [2, 17] was 144 ± 80.3 ng·h/mL. The Tmax [2, 17] was 3.75 ± 4.85 h, the half-life [2, 17] was 37.5 ± 46.9 min and the Cmax ([2]; male, Sprague Dawley, plasma, po, 168 mg/kg, read-out: Cmax) was 113 ± 102 ng/mL. For the same molecule, the Vd ([2]; naringin 10.5 mg kg^-1 p.o. single dose) was 174 ± 98.3 L/kg, the Vd ([2]; naringin 21 mg kg^-1 p.o. single dose) was 322 ± 239 L/kg and the Vd ([2]; naringin 42 mg kg^-1 p.o. single dose) was 586 ± 394 L/kg. It also gave a Cmax [2, 18] of 104 ± 77.5 ng/mL and a Vd [2, 18] of 639 ± 657 L/kg.
